assay: Human HepG2 cell viability assay in 384 well format; assay type: toxicity, cell-based; set-up: dose 125 nL, time 70.5 hour; concentration not given beside the values; details: HepG2 cells, read-out: Inhibition

Structure (SMILES)	cytotoxicity at 70.5 h [%]
COCCCNC(=O)Cc1cc(-c2ccc(Cl)cc2)on1	3.59
N#CC1(NC(=O)Cn2nnc(-c3cc4ccccc4o3)n2)CCCC1	-11.5
CCN(CC)CCN1CCO[C@H]2[C@@H](OCc3ccccn3)CC[C@@H]21	-4.9
COc1ccccc1C(=O)N1CCCC1c1ncc2c(n1)CCNC2 (stereo not drawn)	-2.07
O=C(Cn1nc(N2CCOCC2)ccc1=O)Nc1nccs1	15
OC[C@H]1CC[C@]2(CC1)CN(Cc1ccsc1)Cc1ccccc1O2	7.87
CC(C)CC(=O)Nc1cc(C(=O)N(C)C(C)C)ccc1Cl	-8.37
CCOCC(=O)NC1(c2cccc(Br)c2)CC1	13.9
CC(C)(C)C(=O)N1CCCC1c1cc(CO)[nH]n1 (stereo not drawn)	-1.34
Cc1ncc(CN(C)C(=O)Nc2cccc(C(=O)N3CCOCC3)c2)s1	-2.6
CC(=O)NCc1nccnc1C1CCN(C(=O)c2cc[nH]n2)CC1	-6.68
O=C(NCCNc1ccc(C(F)(F)F)cn1)c1cc(Cl)ccc1F	-4.63
Cc1nccn1CCN(C)C(=O)c1cn(-c2ccccc2)nn1	33.5
CCCn1ncc(C(=O)N2CCN(C3CCSCC3)CC2)c1C	2.68
CC(C)c1nc(C(=O)N2CCCC(n3cncn3)C2)c[nH]1 (stereo not drawn)	-2.47
Cn1cc(C(=O)N2CCCC2c2ccc3c(c2)OCO3)ccc1=O (stereo not drawn)	-1.44
NC(=O)CN1CC2(CCC1=O)CCN(Cc1ccc(F)cc1Cl)CC2	-1.9
CC(c1ccon1)N(C)Cc1cc(O)c2cc(F)ccc2n1 (stereo not drawn)	-10.6
O=C(c1cnccn1)N1C[C@@H]2CC[C@H](C1)N(C(=O)Cc1ccsc1)C2	-1.28
CCN(Cc1noc(C2CCC2)n1)C(=O)c1cnc2ccccc2c1	13.1
CC(NC(=O)NCc1cccc(F)c1)(C(=O)O)c1ccco1 (stereo not drawn)	-8.22
Cc1nccc(NCc2cc3n(n2)CCCN(S(C)(=O)=O)C3)n1	-3.08
CC(NC(=O)NCc1ccc(Cl)cc1)c1ccccn1 (stereo not drawn)	-10.7

Structure (SMILES)	cytotoxicity at 70.5 h [%]
CCCn1nccc1-c1nccnc1CC1CCN(C(C)=O)CC1	-2.55
NC(=O)C(CNC(=O)Cc1ccsc1)Cc1ccc(F)cc1 (stereo not drawn)	-3.39
CN(CC(=O)NCCc1cc2ccccc2o1)S(C)(=O)=O	13.9
O=C(CCc1ccccn1)N1CCCN(C(=O)CC2CCCC2)CC1	4.27
CN1CCN(C[C@@H]2OC[C@H]3CN(Cc4cccc(F)c4)CC[C@H]32)CC1	2.68
CC(c1c(F)cccc1F)N1CCN(Cc2nccn2C)CC1 (stereo not drawn)	24.5
Cc1cccc(CS(=O)(=O)NCc2nn(C)c3c2CCCC3)c1	-2.52
CCN1C[C@H]2N(c3ncccn3)CCC[C@@]2(C(=O)NCC2CC2)C1	0.391
Cc1cc(C)nc(Nc2cc(C3CCCN(C)C3)nc(C)n2)n1 (stereo not drawn)	-27.7
COc1ccc(CN2C[C@H]3C[C@H](CN(C)C)O[C@H]3C2)cc1	-5.86
Cc1ccc(C(CNCc2nccn2C)N2CCOCC2)s1 (stereo not drawn)	-2.09
COc1ccccc1OC1CCN(c2nc(N)nc3[nH]cnc23)CC1	2.92
COc1cccc(N2CCN(Cc3ccc4occc4c3)CC2=O)c1	-12.9
c1cn2c(n1)CO[C@@H](CNCc1ccc3c(c1)OCO3)C2	-4.1
COCCC(=O)N1C[C@@H](c2cccc(OC)c2)[C@@]2(CCCCC(=O)N2)C1	-14.8
Cn1cc(CNS(=O)(=O)c2cc(F)ccc2F)cn1	-6.49
CCC1=N[C@@]2(CC[C@@H]3CN(CC4CC4)C[C@@H]32)C(=O)N1	7.37
Cc1cc(C(=O)N2CCCC3(C=Cc4ccccc4O3)CC2)cc(=O)[nH]1 (stereo not drawn)	-7.57
COc1cc2c(cc1OC)CN(C(=O)Cn1nc(C)cc1C)CC2	-5.35
CCn1ccnc1CN1CCCN(C(=O)c2cncnc2C)CC1	0.803
Cc1cc(C(=O)N2CCCC(n3cncn3)C2)c(C)n1C1CC1 (stereo not drawn)	-1.59
Cc1nccc(CNC(=O)CCc2c(C)nc3cc(O)nn3c2C)n1	-5.73
CCc1nc(CC(=O)N2CCC(C(=O)N(CC)CC)CC2)cs1	-11.2

Structure (SMILES)	cytotoxicity at 70.5 h [%]
Cc1cccc(-n2nc(CC(C)C)nc2CCn2ccc(=O)[nH]c2=O)c1	-2.09
CCc1nnc(CN2CCCCC2Cn2cncn2)o1 (stereo not drawn)	10.6
Cc1cnn(CCC(=O)N2CCCC(c3cc(C(N)=O)[nH]n3)C2)c1 (stereo not drawn)	-10.9
Cc1csc2ncc(-c3ccnc(N4CCCC[C@@H]4CO)n3)c(=O)n12	20.9
CC(C)(C)OC(=O)N1CCCC[C@H]1C(=O)NCc1nccs1	-9.82
CCCc1nnc(N2CCN(c3cccc(C)c3C)CC2)o1	-14.8
NC(=O)C1CCCN1Cc1cccc(NC(=O)c2ccc(Cl)cc2F)c1 (stereo not drawn)	-20.5
O=C(NCCN1CCCCC1CO)c1cc(-c2ccccc2)on1 (stereo not drawn)	-4.82
Cc1cccc(C2(CNC(=O)c3ccnc(N(C)C)c3)CCOCC2)c1	15.5
Cc1c(C(=O)NCC(C)(C)S(C)(=O)=O)cccc1-c1ccccn1	-16.9
O=C(Nc1cccnc1N1CCCC1)C1CCS(=O)(=O)C1 (stereo not drawn)	1.04
Cc1csc2nc3n(c(=O)c12)CCN(Cc1ccccn1)CC3	2.36
Cc1n[nH]c(NC(=O)c2ccc(COCC(F)(F)F)cc2)c1C	-10.3
CN(C)C[C@H]1OC[C@@H]2CCN(S(=O)(=O)c3ccc(F)cc3)C[C@@H]21	-7.32
O=S(=O)(NCc1cccnc1OC1CCCC1)N1CCOCC1	-10.2
O=S(=O)(NC1CC1)c1cccc(Br)c1	3.01
COc1cccc(C(O)C(=O)N(C)CCc2ccccn2)c1 (stereo not drawn)	-0.0669
O=C(C1CCCO1)N1CCC2(CC1)COCCN(Cc1ccncc1)C2 (stereo not drawn)	-9.52
Cc1nc(C2CCNC2)nc2c1CCC(=O)N2CC(C)C (stereo not drawn)	-3.62
c1cnc(NCc2cncc3c2CCN(Cc2cccnc2)C3)nc1	-5.03
c1ccc(OCCCn2ccnc2-c2cn(C3CCNCC3)nn2)cc1	-4.27
COCCc1noc(CNC2CCCC(C)(C)C2)n1 (stereo not drawn)	-4.63
Cn1cc(C(=O)N2CCOc3ccccc32)ccc1=O	-12.6

Structure (SMILES)	cytotoxicity at 70.5 h [%]
CSCC(C)(O)CNC(=O)c1cc(Cl)ccc1Cl (stereo not drawn)	-7.98
CC(C)c1cc(C(=O)NCCN2CCOCC2)nc(N2CCCC2)n1	-3.85
O=C(NCC1OCCc2cn(CC3CCOCC3)nc21)c1ccncc1 (stereo not drawn)	-10.6
CCOc1ccc(Cl)c(C(=O)N2CCN(c3ccncc3)CC2)n1	-13.6
O=C(C1CCOCC1)N1CCC2(CCNCC2)C1	-11.8
O=C(NC(c1ccc(Cl)cc1)c1cccnc1)C1CC1 (stereo not drawn)	-7.72
COc1ccc(C(C)NC(=O)NCCNc2ccccn2)c(OC)c1 (stereo not drawn)	27.8
O=C1CN(C(=O)C2CN(c3cccc(Cl)c3)CCO2)CCN1 (stereo not drawn)	-7.93
Cc1noc(C2CN(CC(=O)NCC3CCCO3)C2)n1 (stereo not drawn)	-3.62
CCN(CC)C(=O)c1ccc(COc2ccccc2C#N)o1	-9.63
CN1CC(C(=O)NCCOc2ccc3c(c2)OCO3)CC1=O (stereo not drawn)	-1.1
O=C1NCC[C@]12CN(Cc1ccsc1)C[C@H]2c1ccccc1	-4.93
Cc1ccc(C2COCCN2C(=O)c2ccsc2)o1 (stereo not drawn)	-8.5
Cc1ncc(C(=O)NCCNc2ncccc2C#N)s1	-0.109
Cc1c(C)n(CC(O)CN2CCC(C)CC2)c2c(Cl)cccc12 (stereo not drawn)	14.8
CN1CCc2[nH]cnc2C12CCN(C(=O)c1noc3c1CCCC3)CC2	-10.9
CN(c1ccncn1)C1CC2(CCN(C(=O)c3cncs3)C2)C1 (stereo not drawn)	-2.06
O=C(Cn1c(-c2ccco2)cc2cccnc21)N1CCCC1	-8.97
CCCC1(CO)CCCN(C(=O)CNC(N)=O)C1 (stereo not drawn)	-28.7
CS(=O)(=O)N1CC2(CCN(Cc3ccccn3)C2)Cc2ccccc21 (stereo not drawn)	-8
O=C(Cc1cccs1)N1CCCCC1c1ccn2ccnc2n1 (stereo not drawn)	-5.26
CNCC(=O)N1CCC(c2ccnc(Nc3ccc(C)cn3)n2)C1 (stereo not drawn)	-1.4
CN(CC(=O)N1CCN(c2ccccn2)CC1)c1ccc(Cl)cn1	-17.2

Structure (SMILES)	cytotoxicity at 70.5 h [%]
CCCn1c(C)c(CC(=O)NC)c2c1CC(C)(C)CC2=O	-6.96
CCc1ccc(C(=O)O)cc1S(=O)(=O)Nc1c(C)ccn(C)c1=O	-9.15
CNC(=O)[C@H]1C[C@@H]2CN(C(=O)c3cnc(C)cn3)C[C@@H]2N1C	-8.55
CN(Cc1ccc(N(C)C)cc1)C(=O)NCc1nnc2n1CCC2	-5.5
Cn1cc(CN(Cc2ccccc2)CC(O)c2cccs2)cn1 (stereo not drawn)	-8.92
Cc1ccc(-c2nc(CC(=O)N3CCCC(NC(=O)C(C)C)C3)cs2)o1 (stereo not drawn)	-4.05
CC(CNC(=O)c1cnc[nH]1)Oc1ccccc1Br (stereo not drawn)	-15.7
CSc1nnc(CC2CCN(C(=O)CCc3cccnc3)CC2)n1C	-8.7
O[C@@H]1C[C@@H](c2nc(-c3ccccc3)no2)N(CC2CCCCC2)C1	-12.5
CCCC(O)CN1CC(C)(C)CN(C(=O)c2ccccc2)CC1=O (stereo not drawn)	-10.1
O=C(CSC1CCc2ccccc2NC1=O)NC1CC1 (stereo not drawn)	-2.66
COc1ccc(CN2CCCCCC2c2cccs2)c(OC)c1 (stereo not drawn)	-8.21
O=C(C[S+]([O-])Cc1csc(C2CCCC2)n1)Nc1ccccc1 (stereo not drawn)	-17.5
CCN1CCN(c2ccc(CNC(=O)c3cc(C)on3)cn2)CC1	-4.09
Cc1cc(C)cc(N2CCN(C(=O)C3CN(C)C(=O)N3)CC2=O)c1 (stereo not drawn)	-9.45
CC(CNCc1ccncc1)Oc1ccccn1 (stereo not drawn)	-12.5
CCCN(C(=O)c1cccnc1)c1nc2c(s1)CCc1c-2cnn1C	21
c1cnc(N2CCC3(CCN(CC4CCCC4)CC3)C2)nc1	-1.07
COCCCC1CCN([C@@H]2c3ccccc3C3(CCNCC3)[C@H]2O)CC1	-1.24
c1ccc2oc(CN3CCCC(Cn4cncn4)C3)nc2c1 (stereo not drawn)	-1.69
FC(F)(F)Sc1ccccc1NCc1nc(C2CC2)no1	16.7

Source: ChEMBL document CHEMBL3507680, “University of Dundee, Gates Library screen for HepG2 cell viability”
